Laboratory results as given in the supplement of paper PMC10307832.

Assays:
Test in all cases: relative viability (nuclei count vs DMSO), 5 days (fraction); higher = more cells survive
IDH-C35 + Navitoclax = compound: Cc1ccccc1C(C(=O)NC1CCCCC1)N(C(=O)Cn1ccnc1C)c1cccc(F)c1 [IDH-C35] + CC1(C)CCC(c2ccc(Cl)cc2)=C(CN2CCN(c3ccc(C(=O)NS(=O)(=O)c4ccc(N[C@H](CCN5CCOCC5)CSc5ccccc5)c(S(=O)(=O)C(F)(F)F)c4)cc3)CC2)C1 [Navitoclax] (partner 0.5 µM)
Summary of the method: (§1)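 A single step with final 0.05% Triton X-100, 1% formaldehyde and 1 ug/ml Hoechst fixed the cells and stained nuclei 5 days after treatment. Lung cancer cell lines in 1536-well plates had been treated by pin tool the day after seeding with one drug alone or a fixed anchor-drug dose plus five library-drug doses (not always all listed) in √10 steps, and nuclei were counted on 4× images. Relative viability is the ratio of nuclei in treated wells to nuclei in vehicle wells, taken as the median of duplicate plates.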

[1] = compound: CC1=C(C(=NN1)C)CC2=C(C3=C(S2)N(C(=O)N(C3=O)C)CC(C)C)C(=O)N4C[C@@H](CO4)O + COc1cccc2cc(-c3nc([C@H]4CC[C@H](C(=O)O)CC4)n4ncnc(N)c34)[nH]c12 [OSI-027] (partner 0.5 µM)
Summary of the method: as §1

IDH-C35 + OSI-027 = compound: Cc1ccccc1C(C(=O)NC1CCCCC1)N(C(=O)Cn1ccnc1C)c1cccc(F)c1 [IDH-C35] + COc1cccc2cc(-c3nc([C@H]4CC[C@H](C(=O)O)CC4)n4ncnc(N)c34)[nH]c12 [OSI-027] (partner 0.5 µM)
Summary of the method: as §1

IDH-C35 + Pictilisib = compound: Cc1ccccc1C(C(=O)NC1CCCCC1)N(C(=O)Cn1ccnc1C)c1cccc(F)c1 [IDH-C35] + CS(=O)(=O)N1CCN(Cc2cc3nc(-c4cccc5[nH]ncc45)nc(N4CCOCC4)c3s2)CC1 [Pictilisib] (partner 1 µM)
Summary of the method: as §1

UMC-11
relative viability (IDH-C35 + Navitoclax; first compound 0.08 µM): 0.298
relative viability (IDH-C35 + Navitoclax; first compound 0.253 µM): 0.347
relative viability (IDH-C35 + Navitoclax; first compound 0.8 µM): 0.323
relative viability (IDH-C35 + Navitoclax; first compound 2.53 µM): 0.32
relative viability (IDH-C35 + Navitoclax; first compound 8 µM): 0.344
relative viability ([1]; first compound 0.0025 µM): 0.494
relative viability ([1]; first compound 0.007906 µM): 0.473
relative viability ([1]; first compound 0.025 µM): 0.468
relative viability ([1]; first compound 0.07906 µM): 0.549
relative viability ([1]; first compound 0.25 µM): 0.572
relative viability (IDH-C35 + OSI-027; first compound 0.08 µM): 0.444
relative viability (IDH-C35 + OSI-027; first compound 0.253 µM): 0.47
relative viability (IDH-C35 + OSI-027; first compound 0.8 µM): 0.473
relative viability (IDH-C35 + OSI-027; first compound 2.53 µM): 0.482
relative viability (IDH-C35 + OSI-027; first compound 8 µM): 0.463
relative viability (IDH-C35 + Pictilisib; first compound 0.08 µM): 0.874
relative viability (IDH-C35 + Pictilisib; first compound 0.253 µM): 0.794
relative viability (IDH-C35 + Pictilisib; first compound 0.8 µM): 0.759
relative viability (IDH-C35 + Pictilisib; first compound 2.53 µM): 0.79
relative viability (IDH-C35 + Pictilisib; first compound 8 µM): 0.889
